Measured values: patent US10350199B2, “3-(1h-pyrrolo[2,3-b]pyridin-2-yl)-1h-indazoles and therapeutic uses thereof” (Samumed, LLC, priority 2015, dated 2019)

Legend:
Format in all cases: cell-based
[1] = system: IL-6 (THP-1 human monocyte cell line); test: IL-6 inhibition in LPS-stimulated THP-1 cells (HTRF); conditions: for EC50: IL-6 inhibition, LPS-stimulated THP-1 cells, HTRF; for inhibition at 10 µM: THP-1, read-out: percentage in parentheses beside EC50 >10 (IL-6 inhibition)
Procedure: THP-1 cells were cultured in basal media with 1% FBS for 24 hours before the start of the assay. […] THP-1 cells were plated at 5000 cells/well in the 384-well plates and incubated at 37° C. for 2 h. 500 ng/mL of LPS was added after 2 hours and cells were incubated for another 22 hours at 37° C. Plates were spun in a centrifuge for 1 minute at […] and a mixture of anti-IL6 XL665, and anti-IL6 Cryptate diluted in reconstitution buffer (Cisbio Inc.) was added to each well. Following incubation for 3 hrs at room temperature, Homogeneous Time-Resolved Fluorescence (HTRF) was measured using the Envision (Perkin Elmer) at 665 nm and […]. The ratio of fluorescence at 665 nm to 620 nm was used as a readout for IL6 quantification. All samples were processed in duplicate. Readings were normalized to DMSO treated cells and normalized activities were utilized for EC50 calculations using the dose-response log (inhibitor) vs. response -variable slope (four parameters) nonlinear regression feature available in GraphPad Prism 5.0 (or Dotmatics).

[2] = system: Wnt activity (Sp5-Luc reporter, SW480 colon carcinoma cells); test: Wnt activity screening assay, Sp5-Luc reporter gene in SW480 cells; conditions: Homo sapiens; for inhibition at 10 µM: SW480, read-out: percent inhibition at 10 μM; for EC50: Sp5-Luc reporter, SW480 cells, overnight incubation
Description: The screening assay for Wnt activity is described as follows. Reporter cell lines can be generated by stably transducing cancer cell lines (e.g., colon cancer) or primary cells (e.g., IEC-6 intestinal cells) with a lentiviral construct that includes a Wnt-responsive promoter driving expression of the firefly luciferase gene.
SW480 colon carcinoma cells were transduced with a lentiviral vector expressing luciferase with a human Sp5 promoter consisting of a sequence of eight TCF/LEF binding sites. SW480 cells stably expressing the Sp5-Luc reporter gene and a hygromycin resistance gene were selected by treatment with 150 μg/mL of hygromycin for 7 days. These stably transduced SW480 cells were expanded in cell culture and used for all further screening activities. […] For Sp5-Luc reporter gene assays, the cells were plated at 4,000 cells/well in 384-well plates with medium containing 1% fetal bovine serum and incubated overnight at 37° C. and 5% CO2. Following incubation, 20 μl of BrightGlo luminescence reagent (Promega) was added to each well of the 384-well assay plates. The plates were placed on an orbital shaker for 2 min and then luminescence was quantified using the Envision (Perkin Elmer) plate reader. Readings were normalized to DMSO only treated cells, and normalized activities were utilized for EC50 calculations using the dose-response log (inhibitor) vs. response -variable slope (four parameters) nonlinear regression feature available in GraphPad Prism 5.0 (or Dotmatics).

[3] = system: primary human fibroblasts derived from IPF patients (LL29 cells) treated with TGF-β1; test: Inhibition of the fibrotic process: αSMA staining in TGF-β1 treated LL29 fibroblasts; conditions: Fibroblast; for EC50: 96 h, LL29 cells, TGF-β1 20 ng/mL, 4 days, % αSMA positive cells; for inhibition at 10 µM: read-out: percent inhibition at 10 μM
Procedure: Representative compounds were screened using primary human fibroblasts (derived from IPF patients) treated with TGF-β1 to determine their ability to inhibit the fibrotic process.
LL29 cells are plated at 1,500 cells/well in 80 μL/well F12 medium supplemented with 1% Fetal Bovine Serum. […] Wells treated with TGF-β1 and containing DMSO were used as controls. […] Following incubation for 4 days, SYTOX green nucleic acid stain (Life Technologies [Thermo Fisher Scientific]) was added to the wells at a final concentration of 1 μM and incubated at room temperature for 30 min.

SW480 colon cancer cells = test: Cell viability assay (CellTiter-Blue), SW480 cells, four days; conditions: Homo sapiens; for EC50: 96 h, SW480 cell viability, four days, CellTiter-Blue; for inhibition at 10 µM: SW480, read-out: percent inhibition at 10 μM
Procedure: Representative compounds were screened using the following assay procedure to assess the effect on cell viability as described below.
Approximately 2×10^3 SW480 colon cancer cells were seeded into each well and allowed to incubate in the presence or absence of compound for four days at 37° C./5% CO2. Eight replicates of DMSO-treated cells served as controls and cells treated with compound were performed in duplicate.
After incubation, 20 μL of CellTiter-Blue (Promega) was added to each well allowed to incubate for approximately 3 hours. This reagent was a buffered solution which contains resazurin, metabolically active cells were able to reduce rezarurin (blue) into resorufin (pink) which was highly fluorescent. This measured fluorescence was used as a readout for cell viability.

SMILES: c1cc(-c2ccnc3[nH]c(-c4n[nH]c5ccc(-c6cn[nH]c6)cc45)cc23)ccn1 [Compound 571, 5-(1H-Pyrazol-4-yl)-3-(4-(pyridin-4-yl)-1H-pyrrolo[2,3-b]pyridin-2-yl)-1H-indazole]
- EC50 [1]: > 10 µM
- inhibition at 10 µM [1]: 37%
- inhibition at 10 µM [2]: 37%
- EC50 [2]: > 10 µM
- EC50 [3]: > 10 µM
- inhibition at 10 µM [3]: 28.3%
- EC50 (SW480 colon cancer cells): > 10 µM
- inhibition at 10 µM (SW480 colon cancer cells): 23.8%

SMILES: COc1cncc(-c2ccc3[nH]nc(-c4cc5c(-c6ccco6)ccnc5[nH]4)c3c2)c1 [Compound 991, 3-(4-(Furan-2-yl)-1H-pyrrolo[2,3-b]pyridin-2-yl)-5-(5-methoxypyridin-3-yl)-1H-indazole]
- EC50 [1]: 0.012 µM
- inhibition at 10 µM [2]: 7.9%
- EC50 [2]: > 10 µM
- EC50 (SW480 colon cancer cells): > 10 µM
- inhibition at 10 µM (SW480 colon cancer cells): 0%

SMILES: c1ncc(-c2ccc3[nH]nc(-c4cc5c(-c6ccsc6)ccnc5[nH]4)c3c2)cn1 [Compound 307, 5-(Pyrimidin-5-yl)-3-(4-(thiophen-3-yl)-1H-pyrrolo[2,3-b]pyridin-2-yl)-1H-indazole]
- EC50 [1]: > 10 µM
- inhibition at 10 µM [1]: 45.5%
- inhibition at 10 µM [2]: 6%
- EC50 [2]: > 10 µM
- EC50 [3]: > 10 µM
- inhibition at 10 µM [3]: 0%
- EC50 (SW480 colon cancer cells): > 10 µM
- inhibition at 10 µM (SW480 colon cancer cells): 0%

SMILES: Cc1ncc(-c2ccc3[nH]nc(-c4cc5c(-c6ccncc6)ccnc5[nH]4)c3c2)n1C [Compound 573, 5-(1,2-Dimethyl-1H-imidazol-5-yl)-3-(4-(pyridin-4-yl)-1H-pyrrolo[2,3-b]pyridin-2-yl)-1H-indazole]
- EC50 [1]: > 10 µM
- inhibition at 10 µM [1]: 26.4%
- inhibition at 10 µM [2]: 8%
- EC50 [2]: > 10 µM
- EC50 [3]: > 10 µM
- inhibition at 10 µM [3]: 113%
- EC50 (SW480 colon cancer cells): 1.15 µM

SMILES: Fc1cccc(-c2ccnc3[nH]c(-c4n[nH]c5ccc(-c6cncc(CN7CCC(F)(F)C7)c6)cc45)cc23)c1 [Compound 26, 5-(5-((3,3-Difluoropyrrolidin-1-yl)methyl)pyridin-3-yl)-3-(4-(3-fluorophenyl)-1H-pyrrolo[2,3-b]pyridin-2-yl)-1H-indazole]
- EC50 [1]: 0.285 µM
- inhibition at 10 µM [2]: 49%
- EC50 [2]: > 10 µM
- EC50 [3]: 1.96 µM
- EC50 (SW480 colon cancer cells): > 10 µM
- inhibition at 10 µM (SW480 colon cancer cells): 40.6%

SMILES: O=C(Nc1cncc(-c2ccc3[nH]nc(-c4cc5c(-c6ccccc6F)ccnc5[nH]4)c3c2)c1)C1CCCC1 [Compound 78, N-(5-(3-(4-(2-Fluorophenyl)-1H-pyrrolo[2,3-b]pyridin-2-yl)-1H-indazol-5-yl)pyridin-3-yl)cyclopentanecarboxamide]
- EC50 [1]: > 10 µM
- inhibition at 10 µM [1]: 39.9%
- inhibition at 10 µM [2]: 1.9%
- EC50 [2]: > 10 µM
- EC50 [3]: > 10 µM
- inhibition at 10 µM [3]: 39%
- EC50 (SW480 colon cancer cells): > 10 µM
- inhibition at 10 µM (SW480 colon cancer cells): 14.4%

SMILES: CC(C)(C)C(=O)Nc1cncc(-c2ccc3[nH]nc(-c4cc5c(-c6ccc(F)cc6)ccnc5[nH]4)c3c2)c1 [Compound 36, N-(5-(3-(4-(4-Fluorophenyl)-1H-pyrrolo[2,3-b]pyridin-2-yl)-1H-indazol-5-yl)pyridin-3-yl)pivalamide]
- EC50 [1]: > 10 µM
- inhibition at 10 µM [1]: 19.3%
- inhibition at 10 µM [2]: 11.7%
- EC50 [2]: > 10 µM
- EC50 [3]: > 10 µM
- inhibition at 10 µM [3]: 0%
- EC50 (SW480 colon cancer cells): > 10 µM
- inhibition at 10 µM (SW480 colon cancer cells): 33.1%

SMILES: CN(C)Cc1cncc(-c2ccc3[nH]nc(-c4cc5c(-c6ccoc6)ccnc5[nH]4)c3c2)c1 [Compound 321, 1-(5-(3-(4-(Furan-3-yl)-1H-pyrrolo[2,3-b]pyridin-2-yl)-1H-indazol-5-yl)pyridin-3-yl)-N,N-dimethylmethanamine]
- EC50 [1]: > 10 µM
- inhibition at 10 µM [1]: 19%
- inhibition at 10 µM [2]: 3.7%
- EC50 [2]: > 10 µM
- EC50 [3]: 1.37 µM
- EC50 (SW480 colon cancer cells): > 10 µM
- inhibition at 10 µM (SW480 colon cancer cells): 7.9%

SMILES: CCCCC(=O)Nc1cncc(-c2ccc3[nH]nc(-c4cc5c(-c6ccccc6F)ccnc5[nH]4)c3c2)c1 [Compound 75, N-(5-(3-(4-(2-Fluorophenyl)-1H-pyrrolo[2,3-b]pyridin-2-yl)-1H-indazol-5-yl)pyridin-3-yl)pentanamide]
- EC50 [1]: > 10 µM
- inhibition at 10 µM [1]: 38.2%
- inhibition at 10 µM [2]: 13%
- EC50 [2]: > 10 µM
- EC50 [3]: > 10 µM
- inhibition at 10 µM [3]: 29.1%
- EC50 (SW480 colon cancer cells): > 10 µM
- inhibition at 10 µM (SW480 colon cancer cells): 16.8%

SMILES: Fc1cccc(-c2ccnc3[nH]c(-c4n[nH]c5ccc(-c6ccncc6)cc45)cc23)c1 [Compound 18, 3-(4-(3-Fluorophenyl)-1H-pyrrolo[2,3-b]pyridin-2-yl)-5-(pyridin-4-yl)-1H-indazole]
- EC50 [1]: 0.995 µM
- inhibition at 10 µM [2]: 18%
- EC50 [2]: > 10 µM
- EC50 [3]: > 10 µM
- inhibition at 10 µM [3]: 33.6%
- EC50 (SW480 colon cancer cells): > 10 µM
- inhibition at 10 µM (SW480 colon cancer cells): 16.2%

SMILES: CCCC(=O)Nc1cncc(-c2ccc3[nH]nc(-c4cc5c(-c6cccs6)ccnc5[nH]4)c3c2)c1 [Compound 353, N-(5-(3-(4-(Thiophen-2-yl)-1H-pyrrolo[2,3-b]pyridin-2-yl)-1H-indazol-5-yl)pyridin-3-yl)butyramide]
- EC50 [1]: > 10 µM
- inhibition at 10 µM [1]: 37.5%
- EC50 [2]: 0.04 µM
- EC50 [3]: 5.08 µM
- EC50 (SW480 colon cancer cells): 1.3 µM

SMILES: c1csc(-c2ccnc3[nH]c(-c4n[nH]c5ccc(-c6cnccn6)cc45)cc23)c1 [Compound 712, 5-(Pyrazin-2-yl)-3-(4-(thiophen-2-yl)-1H-pyrrolo[2,3-b]pyridin-2-yl)-1H-indazole]
- EC50 [1]: > 10 µM
- inhibition at 10 µM [1]: 36.3%
- inhibition at 10 µM [2]: 5.6%
- EC50 [2]: > 10 µM
- EC50 [3]: 1.4 µM
- EC50 (SW480 colon cancer cells): > 10 µM
- inhibition at 10 µM (SW480 colon cancer cells): 13.9%

SMILES: CC(C)(C)CC(=O)Nc1cncc(-c2ccc3[nH]nc(-c4cc5c(N6CCCCC6)ccnc5[nH]4)c3c2)c1 [Compound 184, 3,3-Dimethyl-N-(5-(3-(4-(piperidin-1-yl)-1H-pyrrolo[2,3-b]pyridin-2-yl)-1H-indazol-5-yl)pyridin-3-yl)butanamide]
- EC50 [1]: 3.99 µM
- inhibition at 10 µM [2]: 11.9%
- EC50 [2]: > 10 µM
- EC50 [3]: > 10 µM
- EC50 (SW480 colon cancer cells): > 10 µM
- inhibition at 10 µM (SW480 colon cancer cells): 1.6%

SMILES: c1cc(N2CCCCC2)c2cc(-c3n[nH]c4ccc(-c5cn[nH]c5)cc34)[nH]c2n1 [Compound 603, 3-(4-(Piperidin-1-yl)-1H-pyrrolo[2,3-b]pyridin-2-yl)-5-(1H-pyrazol-4-yl)-1H-indazole]
- EC50 [1]: 0.663 µM
- EC50 [2]: 0.181 µM
- EC50 [3]: 0.304 µM
- EC50 (SW480 colon cancer cells): 0.296 µM

SMILES: Fc1ccc(-c2ccnc3[nH]c(-c4n[nH]c5ccc(C6=CCNCC6)cc45)cc23)cc1 [Compound 522, 3-(4-(4-Fluorophenyl)-1H-pyrrolo[2,3-b]pyridin-2-yl)-5-(1,2,3,6-tetrahydropyridin-4-yl)-1H-indazole]
- EC50 [1]: > 10 µM
- inhibition at 10 µM [1]: 48.7%
- EC50 [2]: 3.25 µM
- EC50 [3]: 3.86 µM
- EC50 (SW480 colon cancer cells): > 10 µM
- inhibition at 10 µM (SW480 colon cancer cells): 19.2%

SMILES: CC(C)CC(=O)Nc1cncc(-c2ccc3[nH]nc(-c4cc5c(-c6ccsc6)ccnc5[nH]4)c3c2)c1 [Compound 282, 3-Methyl-N-(5-(3-(4-(thiophen-3-yl)-1H-pyrrolo[2,3-b]pyridin-2-yl)-1H-indazol-5-yl)pyridin-3-yl)butanamide]
- EC50 [1]: 0.971 µM
- EC50 [2]: 2.1 µM
- EC50 (SW480 colon cancer cells): 6.94 µM
